Assay results published in patent publication US6329344A, “Derivatives of monosaccharides as cell adhesion inhibitors” (Ranbaxy Laboratories Limited, priority 1998, dated 2001).
Like-named read-outs stand apart in the source and are kept apart here.

System: murine contact hypersensitivity response
Experiment: Mouse Ear Swelling Test (MEST), DNFB contact hypersensitivity
Type: in vivo, Swiss albino mice
Settings: ear thickness 24 hours after challenge; for ED30 / ED40: Mus musculus, 24 h; for ED30: read-out: EC30 (ED30, dose for 30% inhibition of ear swelling); for ED40: read-out: EC40 (ED40, dose for 40% inhibition of ear swelling)
Excerpt: The in vitro cell adhesion assay was used to measure the effect of a test compound on adhesion of human T cell line (Jurkat J6) on surfaces coated with VCAM-1. The MEST assesses the ability of the experimental compounds to inhibit the delayed-type hypersensitivity response of sensitized mice against a potent allergen, 1,4-Dinitrofluoro benzene. These two assays are appropriate for screening compounds for two different activities. The cell adhesion assay determines the effect of compounds on the interaction of VLA4 molecules expressed on the surface of Jurkat cells with its counter-receptor, VCAM-1, immobilized on microtitre plate surface. Conversely, the MEST determines the potency of compounds to inhibit the murine contact hypersensitivity response induced by exposing mice to the potent allergen 1,4-Dinitrofluoro benzene. The Chisolm et al method was used in this respect (Chisolm et al, Eur. J. Immunology 1993;23:682).
We tested the efficacy of compounds synthesized in this invention to inhibit the act hypersensitivity in Swiss mice as follows:
20 to 25 gm female Swiss albino mice (animals procured from National Institute of Immunology, New Delhi, India and maintained in our Experimental Animal Facility) were anesthetized with anesthetic ether (Sisco Research Laboratories Ltd., India). A 2 cm^2 patch of dorsal skin was shaved using a hair clipper. The exposed skin was then dermabraded using No. 100 sandpaper gently. 25 μL freshly prepared 0.5% 1,4-Dinitrofluoro benzene in 4:1 (v/v) acetone:olive oil solution was then topically applied onto the dermabraded skin to encourage a mild inflammation reaction. Twenty-four hours after the initial sensitization, the mice were again sensitized with 25 μL freshly prepared 0.5% 1,4-Dinitrofluor benzene (DNFB) in 4:1 (v/v) acetone:olive oil solution on the same dermabraded site as before. The second sensitization was performed while restraining the non-anesthetized, conscious mouse.
2. Administration of Compound
On day 5, compounds were dissolved in an aqueous solvent (pyrogen-free water, alkaline water, or ethanol) and further diluted in pyrogen-free water to prepare appropriate doses. Solutions were administered by intravenous, subcutaneous or oral route.
3. Challenge and Measurement of Ear Thickness
Two hours following administration of the compounds, the animals were physically restrained and painted with 25 μL of freshly prepared 0.5% DNFB in 4:1 (v/v) acetone:olive oil solution on the right ear. The thickness of the right ear was measured using a Series 300 Odimeter (Dyer Gauge Inc, USA) at the time of challenge (0 hr), 4 hours and 24 hours after challenge while physically restraining the non-anesthetized mice. In a separate experiment, it was ascertained that 4:1 (v/v) acetone:olive oil vehicle has no effect on ear thickness.
4. Determination of Effective Concentration of the Compounds
Inhibition of the ear swelling was judged by comparison of treated groups with their negative control groups. Percent inhibition was calculated as: [formula]
STEST =Mean ear thickness in test group at 24 hours after challenge
STEST-zero =Mean ear thickness in test group at zero hours after challenge
SNC =Mean ear thickness in negative control group at 24 hours after challenge
SNC-zero =Mean ear thickness in negative control group at zero hours after challenge
The percentage inhibition of swelling obtained by the above calculation was plotted against log dose using the Graph Pad Prizm software and, from this plot, the log dose corresponding to 30% inhibition (log ED30) and 40% (log ED40) inhibition was determined.
Aqueous solutions of appropriate doses (1 μg/kg to 100 mg/kg) were administered by intravenous route 2 hrs before challenge and their effect on ear thickness was measured. Concentrations inhibiting ear swelling by 30% and 40% were determined and expressed as amount (ng, μg or mg) per Kg body weight.

[1] = I.V., amount per Kg body weight
[2] = S.C., amount per Kg body weight

Compound	EC30 (ED30, dose for 30% inhibition of ear swelling) [1] [mg/kg]	ED30 [1] [µg/kg]	ED40 [1] [mg/kg]	ED30 (Oral) [µg/kg]	ED30 [2] [µg/kg]	ED40 [2] [mg/kg]	ED40 (Oral) [mg/kg]
CC(C)C[C@H](NC(=O)[C@@]12O[C@H]3COC(C)(C)O[C@H]3[C@@H]1OC(C)(C)O2)C(=O)N[C@@H](CC(=O)O)C(=O)N[C@H](C(=O)N1CCC[C@H]1C(=O)O)C(C)C [Compound 122, 2,3; 4,6-Di-O-isopropylidene-1-carbonyl-L-Leucyl-α,L-Aspartyl-L-Valyl-LProline-α,L-xylo-2-hexulofuranosonic acid]	8	12000					
CCCCCCCCCCCCO[C@@H]1[C@H]2OC(C)(C)O[C@H]2O[C@@H]1CNC(=O)Nc1ccc(CC(=O)O)cc1 [Compound 53, 1,2-O-isopropylidene-3-O-dodecyl-5-deoxy-5-N-{[4-(2-hydroxy-2-oxoethyl)phenyl]aminocarbonylamino}-α,D-xylofuranose]		10	0.07	1	0.5	0.01	
CCCCCCCCCCCCO[C@H]1[C@H]2OC(C)(C)O[C@H]2O[C@@H]1CNC(=O)Nc1ccc(CC(=O)O)cc1 [Compound 76, 1,2-O-isopropylidene-3-O-dodecyl-5-deoxy-5-N-{[4-(2-hydroxy-2-oxoethyl)phenyl]aminocarbonylamino}-α,D-ribofuranose]				0.29			0.0813
